Measurements reported in publication PMC7994567, “Characterization of a novel sn1,3 lipase from Ricinus communis L. suitable for production of oleic acid-palmitic acid-glycerol oleate” (Scientific Reports, 2021).

Test system: T1, RcLipase
T1 construct: catalytic Ser146, Asp211, His276; oxyanion Thr63, Leu147
Experiment: hydrolysis kinetics, Michaelis-Menten non-linear regression
Type: biochemical, Ricinus communis
Settings: 20 mM Tris-HCl pH 8.0, 40 °C; substrate 0-1 mM

SMILES | Km [µM]
CCCCCCCCCCCCCCCC(=O)OCC(COC(=O)CCCCCCCCCCCCCCC)OC(=O)CCCCCCCCCCCCCCC [Tripalmitin] | 170 ± 10
CCCCCCCC/C=C\CCCCCCCC(=O)OCC(COC(=O)CCCCCCC/C=C\CCCCCCCC)OC(=O)CCCCCCC/C=C\CCCCCCCC [Triolein] | 210 ± 10
